The record followed here is ChEMBL document CHEMBL1687844, “In Vitro antiretroviral properties of S/GSK1349572, a next-generation HIV integrase inhibitor” (Antimicrob Agents Chemother, 2011).

Calls of active or inactive are those of the source. The calls are words filed in the database; no cut-off is given here.

The term EC50 denotes the concentration that produces a half-maximal response. The term EC90 denotes the concentration at which the effect reaches the 90% level. One may read the CC50 as the concentration at which the toxic effect on the cells reaches its halfway point. The low end stands for greater toxicity to the cells, the high end for lower toxicity to the cells.

In data set [1] the test system is Human immunodeficiency virus 1. As to the kind of experiment: Antiviral activity against Human immunodeficiency virus 1 3B harboring reverse transcriptase M184V mutant infected in human MT2 cells assessed as inhibition of virus induced cytopathic effect selected on day 14 after 4 passages by PCR analysis. In kind it is functional, organism-based. The note with it: MT2, 336 h. For orientation: Cytopathic effects are the visible damage that an infection or toxin causes in cultured cells.

In data set [2] the test system is Human immunodeficiency virus 1. As to the kind of experiment: Antiviral activity against Human immunodeficiency virus 1 3B harboring reverse transcriptase M184V, M184I mutant infected in human MT2 cells assessed as inhibition of virus induced cytopathic effect selected on day 14 after 4 passages by PCR analysis. The class given is functional, organism-based. The note with it: MT2, 336 h.

Data set [3] deals with Human immunodeficiency virus 1. Put plainly: Antiviral activity against Human immunodeficiency virus 1 3B infected in human MT2 cells assessed as inhibition of virus induced cytopathic effect measured after 2 to 3 days by PCR. In kind it is functional, organism-based.
The subject of data set [4] is Human immunodeficiency virus 1. As to the kind of experiment: Antiviral activity against Human immunodeficiency virus 1 3B harboring reverse transcriptase M184V, M184I, K82N mutant infected in human MT2 cells assessed as inhibition of virus induced cytopathic effect selected on day 14 after 4 passages by PCR analysis. In kind it is functional, organism-based. The note with it: MT2, 336 h.

Data set [5] deals with Human immunodeficiency virus 1. The class given is functional, organism-based. The note with it: Human immunodeficiency virus 1, 3B, MT2.
The test system of data set [6] is Human immunodeficiency virus 1. In kind it is functional, organism-based. The note with it: Human immunodeficiency virus 1, 3B, MT2. The source holds these as a separate data set.
Data set [7] has as its system Human immunodeficiency virus 1. In kind it is functional, organism-based. The note with it: Human immunodeficiency virus 1, 3B, MT2, 672 h.
For data set [8], the system named is Human immunodeficiency virus 1. As to the kind of experiment: Antiviral activity against Human immunodeficiency virus 1 3B harboring integrase T124A mutant gene infected in human MT2 cells assessed as inhibition of virus induced cytopathic effect selected after 14 passages measured after 2 to 3 days by PCR. The class given is functional, organism-based.
Data set [9] relates to Human immunodeficiency virus 1. Put plainly: Antiviral activity against Human immunodeficiency virus 1 Bal infected in human PBMC assessed as incorporation of [methly-3H]dTTP to viral DNA after 7 days by reverse transcriptase activity in presence of 100% human serum. The note with it: 168 h.
Data set [10] has as its system Human immunodeficiency virus 1. In kind it is functional, organism-based. The note with it: Human immunodeficiency virus 1, 3B, MT2. This is another data set of the same source.
For data set [11], the system named is Human immunodeficiency virus 1. The class given is functional, organism-based. The note with it: Human immunodeficiency virus 1, 3B, MT2. The source holds these as a separate data set.
Data set [12] deals with Human immunodeficiency virus 1. Put plainly: Antiviral activity against Human immunodeficiency virus 1 NL432 infected in human MT4 cells assessed as increase in 2-LTR circular DNA after 18 hrs by quantitative PCR. The class given is functional, organism-based.
A short description of data set [13]: Cytotoxicity against PHA-stimulated human PBMC after 2 days by Cell titer Glo luminescent assay. The class given is cell-based. A general note: ATP-based viability assays read luminescence as a measure of living cells.
The nature of data set [14]: Cytotoxicity against human IM9 cells after 2 days by Cell titer Glo luminescent assay. The class given is cell-based, IM-9.
Data set [15] can be described thus: Cytotoxicity against human MT4 cells after 2 days by Cell titer Glo luminescent assay. In kind it is cell-based.
In data set [16] the test system is Human immunodeficiency virus 1. As to the kind of experiment: Antiviral activity against Human immunodeficiency virus 1 3B infected in human MT4 cells assessed as incorporation of [methly-3H]dTTP to viral DNA after 7 days by reverse transcriptase activity in presence of […]. In kind it is functional.
For data set [17], the system named is Human immunodeficiency virus 2. As to the kind of experiment: Antiviral activity against Human immunodeficiency virus 2 clinical isolate obtained from HIV infected patients. In kind it is functional, organism-based.
For data set [18], the system named is Human immunodeficiency virus 1. As to the kind of experiment: Antiviral activity against Human immunodeficiency virus 1 Bal infected in human PBMC assessed as incorporation of [methly-3H]dTTP to viral DNA after 7 days by reverse transcriptase activity. In kind it is functional, organism-based. The note with it: 168 h.
Data set [19] relates to Human immunodeficiency virus 1. As to the kind of experiment: Antiviral activity against Human immunodeficiency virus 1 NL432 infected in human MT4 cells assessed as inhibition of viral DNA integration after 18 hrs by quantitative PCR. The class given is functional, organism-based.
For data set [20], the system named is Human immunodeficiency virus 1. As to the kind of experiment: Antiviral activity against pseudo Human immunodeficiency virus 1 Bal infected in human CIP4 after 2 days by luciferase reporter gene assay in presence of 40 mg/ml HAS relative to control. The class given is functional.
The nature of data set [21]: Cytotoxicity against human U937 cells after 2 days by Cell titer Glo luminescent assay. The class given is cell-based, U-937.
Data set [22] deals with Human immunodeficiency virus 1. Put plainly: Antiviral activity against Human immunodeficiency virus 1 3B infected in human MT4 cells assessed as viral viability after 4 to 5 days by Cell titer Glo luminescent assay. In kind it is functional, organism-based.
Data set [23] deals with Human immunodeficiency virus 1. Put plainly: Ratio of EC90 for protein-activated Human immunodeficiency virus 1 Bal infected in human PBMC to EC50 Human immunodeficiency virus 1 Bal infected in human PBMC. In kind it is functional.
The nature of data set [24]: Cytotoxicity against unstimulated human PBMC after 2 days by Cell titer Glo luminescent assay. The class given is cell-based.
Data set [25] concerns Human immunodeficiency virus 1. As to the kind of experiment: Antiviral activity against Human immunodeficiency virus 1 Bal infected in human PBMC assessed as incorporation of [methly-3H]dTTP to viral DNA after 7 days by reverse transcriptase activity in presence of 100% human serum relative to control.
The subject of data set [26] is Human immunodeficiency virus 1. As to the kind of experiment: Antiviral activity against pseudo Human immunodeficiency virus 1 Bal infected in human CIP4 after 2 days by luciferase reporter gene assay in presence of 2 mg/ml AAG relative to control. The class given is functional. In general terms: A reporter such as luciferase makes a cellular process visible.
Data set [27] deals with Human immunodeficiency virus 1. Put plainly: Antiviral activity against Human immunodeficiency virus 1 3B infected in human MT4 cells assessed as incorporation of [methly-3H]dTTP to viral DNA after 7 days by reverse transcriptase activity in presence of 20% human serum albumin relative to control. In kind it is functional.
For data set [28], the system named is Human immunodeficiency virus 1. As to the kind of experiment: Antiviral activity against pseudo Human immunodeficiency virus 1 Bal infected in human CIP4 after 2 days by luciferase reporter gene assay. In kind it is functional, organism-based. The note with it: CIP4, 48 h.
Data set [29] deals with Human immunodeficiency virus 1. Put plainly: Antiviral activity against NNRTI-resistant Human immunodeficiency virus 1 NL432 harboring non-nucleotide reverse transcriptase […] mutant infected in human HeLa-CD4 cells after 2 to 3 days by reverse transcriptase activity. The note with it: Human immunodeficiency virus 1, NL432, CD4; pooled result: one value given for 9 cell lines, strains, targets or settings. The class given is functional, organism-based.

For data set [30], the system named is Human immunodeficiency virus 1. As to the kind of experiment: Antiviral activity against Human immunodeficiency virus 1 NL432 infected in human MT4 cells assessed as effect on viral DNA production after 18 hrs by quantitative PCR. The class given is functional, organism-based.
Data set [31] in a line: Cytotoxicity against human MOLT4 cells after 2 days by Cell titer Glo luminescent assay. In kind it is cell-based, MOLT-4.
The subject of data set [32] is Human immunodeficiency virus 1. Put plainly: Antiviral activity against PI-resistant Human immunodeficiency virus 1 NL432 harboring […] L24I/M46I/L63P/A71V/G73S/V82Tmutant infected in human MT4 cells after 2 to 3 days by reverse transcriptase activity. The note with it: Human immunodeficiency virus 1, NL432, MT4. In kind it is functional, organism-based.

As for `Nc1ccn([C@@H]2CS[C@H](CO)O2)c(=O)n1` [LAMIVUDINE], the EC50 in data set [1], in [2], in data set [3] and in [4] was 800 nM throughout.

For `Cc1nnc(C(=O)NC(C)(C)c2nc(C(=O)NCc3ccc(F)cc3)c(O)c(=O)n2C)o1` [RALTEGRAVIR POTASSIUM], the EC50 in data set [5] was found to be 1.3 nM; in data set [6], 6.4 nM; in data set [3], 0.26 nM; in [7], 0.26 nM; in data set [8], 0.26 nM; in data set [9], 5.6 nM. The values for the EC50 in data set [10] and in data set [11] were 32 nM and 6.4 nM, respectively. In data set [9], the EC90 came to 23 nM.

For the molecule `C[C@@H]1CCO[C@H]2Cn3cc(C(=O)NCc4ccc(F)cc4F)c(=O)c([O-])c3C(=O)N12.[Na+]` [DOLUTEGRAVIR SODIUM], in [12], the result was Active. The CC50 at 48 h in data set [13] was 52000 nM; in data set [14] it was 4800 nM; in [15] it was 14000 nM; in data set [21] it was 7000 nM; in data set [24], 189000 nM; in [31], 15000 nM. In addition, the “fold change (FC)” value in data set [16] is recorded as 75; in data set [20] it was 11; in [23], 3; in data set [25], 75; in [26], 2.1; in data set [27], 32. Also, the concentration giving a half-maximal response (EC50) in [17] was 0.8 nM; in [3] it was 0.26 nM; in [18], 0.51 nM; in data set [22], 0.71 nM; in [28], 2.2 nM; in data set [29], 1.3 nM. Also, the EC50 is 38 nM in [9] and 0.36 nM in data set [32]. In addition, the inhibition entry in data set [19] is “Active”. Further, in [30], the outcome was inactive. The EC90 in [9] worked out at 152 nM.

Take `COc1cc2c(cc1Cc1cccc(Cl)c1F)c(=O)c(C(=O)O)cn2[C@H](CO)C(C)C`: the “fold change (FC)” value in data set [25] is listed as 22. Further, in data set [9], the EC50 came out at 20 nM and the EC90 came out at 78 nM.
